Where two headings read alike, the source gives them in different places. Marks after values point to notes of the source that are not given here.
Assays:
[1] = test system: Sprague Dawley rats; experiment: Palatability (no-choice) trial, peanut butter bait; format: in vivo, rat (Sprague Dawley); conditions: 1% w/w toxicant in peanut butter bait; for mortality at 1 %: po
Excerpt: In the palatability trials, Sprague Dawley rats (ca. 250 g) were presented with 1% w/w compound (n=6) or 0.5% w/w compound (n=5) in a peanut butter bait, following 3 days ‘pre-baiting’ with a peanut butter formulation free of toxicant.

[2] = test system: Sprague Dawley rats; experiment: In vivo lethality, oral gavage; design: species or system rat (Sprague Dawley); conditions: rat; for Time to Death (min) / Onset of Symptoms: mean time; for Onset of Symptoms: visual signs of distress consistent with NRB-like symptoms; for In vivo lethality (oral): n = 2
Outline: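 Sprague Dawley rats (150-200 g) received compound dissolved in 0.2 M HCl (5% DMSO overall) at the desired dose, by oral gavage or tail-vein i.v. injection. Animals were watched for early toxicity signs every minute (i.v.) or every 15 min (oral).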

[3] = Rat serum assay (release of NRB or NRB analogue); format: in vitro ADME; conditions: 80% rat serum, 37° C., 3 h, n = 3
Outline: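 Compound (200 μM final) incubated in 80% rat serum diluted with 0.1 M phosphate pH 7.4, 2.5% DMSO, 37 °C for 3 h, n=3, then quenched in ice-cold acetonitrile. NRB or analogue release was quantified by RP-LCMS against external calibration curves, expressed as percent released.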

[4] = test system: rat caudal artery; experiment: Rat caudal artery ring contractile force (vasoconstrictory activity); design: species or system rat (male Wistar); conditions: for Emax: Table 1, read-out: Vasoconstriction: maximum contractile effect as a % of 90 mM KCl contraction
Outline: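 Endothelium-denuded caudal artery rings from male Wistar rats were held at 2 g resting tension in Tyrode solution (37° C, pH 7.35, 95% O2/CO2) and isometric force was recorded. Compounds were tested at 50 μM, with contraction expressed as percent of the 90 mM KCl response.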

[5] = Simulated gastric fluid (SGF) hydrolytic stability assay; format: physicochemical; conditions: footnote c: compounds not exhibiting vasoconstriction; simulated gastric fluid without pepsin, pH 1.2, 37° C., 1 h, n = 3
Outline: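 Compounds at 200 μM final (2.5% DMSO) were held 1 h at 37 °C in pepsin-free USP simulated gastric fluid (0.03 M NaCl, pH 1.2 with HCl), n=3. […] was quantified by RP-LCMS.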

[6] = test system: Sprague Dawley rats; experiment: Palatability (choice) trial, peanut butter bait; format: in vivo, rat (Sprague Dawley); conditions: 2 days
[7] = test system: Sprague Dawley rats; experiment: In vivo lethality, intravenous injection via the tail; design: species or system rat (Sprague Dawley); conditions: 20 mg/Kg, rat, n = 2
Procedure: Sprague Dawley rats (150-200 g) were used to appraise the rodenticidal activity of the compounds put forward for in vivo evaluation. Briefly, prior to administration the compounds were dissolved in 0.2 M hydrochloric acid (5% DMSO overall), to the desired dose, and without delay either injected intravenously, via the tail, or orally gavaged. All treated animals were housed in a quiet room and monitored every minute (i.v) or every 15 min (oral) to verify early signs of toxicity.

[8] = choice of EPA diet (20 g) and bait with 1% w/w toxicant (20 g), n = 2, Table 15
[9] = n = 6, 3 male and 3 female rats, Table 11, read-out: No of deaths (converted)
[10] = choice of EPA diet (20 g) and bait with 1% w/w toxicant (20 g), n = 12, Table 14
[11] = choice of standard lab pellets (20 g) and bait with 1% w/w toxicant (20 g), n = 12, Table 13

Row | SMILES | Time to Death (min) ([2]; 20 mg/Kg) | Onset of Symptoms ([2]; 20 mg/Kg) | Vasoconstriction: maximum contractile effect as a % of 90 mM KCl contraction ([4]; Table 4, pre-cleavage, n = 3) | No of deaths [6, 8] | In vivo lethality (oral) ([2]; 20 mg/Kg) | In vivo lethality (oral) ([2]; 40 mg/Kg) | Emax [4] | No of deaths [6, 10] | No of deaths [6, 11] | melting point | further results
1 | CC(=Cc1ccccc1)C(=O)OCCN1C(=O)C2C3C=C(C(O)(c4ccccc4)c4ccccn4)C(C3=C(c3ccccc3)c3ccccn3)C2C1=O (stereo not drawn) [Compound 121, 5-(α-Hydroxy-α-2-pyridylbenzyl)-N-2′-α-methylcinnamoyloxyethyl-7-(α-2-pyridylbenzylidene)-5-norbornene-2,3-dicarboximide] | not lethal | 20 min | 0% | 3/12 | – | – | – | – | – | – | No of deaths ([1]; n = 6, 3 male and 3 female rats, Table 11): 6/6; % NRB released, Rat Serum [3]: 19.1 ± 1.3%; Vasoconstriction: maximum contractile effect as a % of 90 mM KCl contraction ([4]; Table 1, compound at 50 μM): 0%; % NRB released, Hydrolytic Stability (simulated gastric fluid) [5]: 0^c %
2 | Cc1ccc(CC(=O)OCN2C(=O)C3C4C=C(C(O)(c5ccccc5)c5ccccn5)C(C4=C(c4ccccc4)c4ccccn4)C3C2=O)cc1 (stereo not drawn) [Compound 324, 5-(α-Hydroxy-α-2-pyridylbenzyl)-N-4-methylphenylacetoyloxymethyl-7-(α-2-pyridylbenzylidene)-5-norbornene-2,3-dicarboximide] | 60^d min | 15 min | 17% | 5/12 | yes^h,i | yes^h,i | 17% | – | – | – | mortality at 1 % [1, 9]: 100%
3 | O=C1NC(=O)C2C3C(C(O)(c4ccccc4)c4ccccn4)=CC(C3=C(c3ccccc3)c3ccccn3)C12 (stereo not drawn) [NRB, 5-(α-Hydroxy-α-2-pyridylbenzyl)-7-(α-2-pyridylbenzylidene)-5-norbornene-2,3-dicarboximide, reference compound] | – | – | – | 5/12 | – | – | 132% | 2/12 | 5/12 | – | Vasoconstriction: maximum contractile effect as a % of 90 mM KCl contraction ([4]; Table 5, compounds of formula (III)): ^aMaximum contractile effect as a % of 90 mM KCl contraction (rat caudal artery); stereoisomeric mixture of NRB = 132%.; Vasoconstriction: maximum contractile effect as a % of 90 mM KCl contraction ([4]; Table 7, compounds of formula (V)): ^aMaximum contractile effect as a % of 90 mM KCl contraction (rat caudal artery); stereoisomeric mixture of NRB = 132%.
4 | O=C(C=Cc1ccc(OC(F)(F)F)cc1)OCCN1C(=O)C2C3C=C(C(O)(c4ccccc4)c4ccccn4)C(C3=C(c3ccccc3)c3ccccn3)C2C1=O (stereo not drawn) [Compound 127, 5-(α-Hydroxy-α-2-pyridylbenzyl)-7-(α-2-pyridylbenzylidene)-N-[2′-(4″-trifluoromethoxycinnamoyloxy)ethyl]-5-norbornene-2,3-dicarboximide] | – | – | 0% | – | – | – | 0% | – | – | 100 to 105 °C | –
5 | O=C(C=Cc1ccccc1)OCN1C(=O)C2C3C=C(C(O)(c4ccccc4)c4ccccn4)C(C3=C(c3ccccc3)c3ccccn3)C2C1=O (stereo not drawn) [Compound 19, N-Cinnamoyloxymethyl-5-(α-hydroxy-α-2-pyridylbenzyl)-7-(α-2-pyridylbenzylidene)-5-norbornene-2,3-dicarboximide] | 90^d min | 20 min | 0% | – | yes^h,i | yes^h,i | 0% | 1/12 | 2/12 | – | In vivo lethality (i.v.) [7]: yes^f; No of deaths ([1]; n = 6, male rats only, Table 10): 5/5^b
6 | CCc1ccc(C=CC(=O)OCCN2C(=O)C3C4C=C(C(O)(c5ccccc5)c5ccccn5)C(C4=C(c4ccccc4)c4ccccn4)C3C2=O)cc1 (stereo not drawn) [Compound 335, N-[2′-(4″-Ethylcinnamoyloxy)ethyl]-5-(α-hydroxy-α-2-pyridylbenzyl)-7-(α-2-pyridylbenzylidene)-5-norbornene-2,3-dicarboximide] | 90^e min | 15 min | 19% | 7/12 | – | yes^h | 19% | – | – | – | mortality at 1 % [1, 9]: 100%
7 | COc1ccc(C=CC(=O)OCCN2C(=O)C3C4C=C(C(O)(c5ccccc5)c5ccccn5)C(C4=C(c4ccccc4)c4ccccn4)C3C2=O)cc1 (stereo not drawn) [Compound 126, 5-(α-Hydroxy-α-2-pyridylbenzyl)-N-[2′-(4″-methoxycinnamoyloxy)ethyl]-7-(α-2-pyridylbenzylidene)-5-norbornene-2,3-dicarboximide] | 50^d min | 25 min | 0% | – | yes^h,i | yes^h,i | 0% | 8/11^b | 10/12 | – | In vivo lethality (i.v.) [7]: yes^f; mortality at 1 % ([1]; n = 6, male rats only, Table 10, read-out: No of deaths (converted)): 83.3%
8 | COc1ccccc1C(=O)OCN1C(=O)C2C3C=C(C(O)(c4ccccc4)c4ccccn4)C(C3=C(c3ccccc3)c3ccccn3)C2C1=O (stereo not drawn) [Compound 13, 5-(α-Hydroxy-α-2-pyridylbenzyl)-N-o-methoxybenzoyloxymethyl-7-(α-2-pyridylbenzylidene)-5-norbornene-2,3-dicarboximide] | – | – | 90% | – | – | – | 90% | – | – | 83 to 88 °C | –
9 | O=C(CCc1ccccc1)OCN1C(=O)C2C3C=C(C(O)(c4ccccc4)c4ccccn4)C(C3=C(c3ccccc3)c3ccccn3)C2C1=O (stereo not drawn) [Compound 18, N-Dihydrocinnamoyloxymethyl-5-(α-hydroxy-α-2-pyridylbenzyl)-7-(α-2-pyridylbenzylidene)-5-norbornene-2,3-dicarboximide] | – | – | 13% | – | – | – | 13% | – | – | 89 to 94 °C | –
10 | COc1cccc(C(=O)OCN2C(=O)C3C4C=C(C(O)(c5ccccc5)c5ccccn5)C(C4=C(c4ccccc4)c4ccccn4)C3C2=O)c1 (stereo not drawn) [Compound 14, 5-(α-Hydroxy-α-2-pyridylbenzyl)-N-m-methoxybenzoyloxymethyl-7-(α-2-pyridylbenzylidene)-5-norbornene-2,3-dicarboximide] | – | – | 0% | – | – | – | 0% | – | – | 171 to 180 °C | –

Reference: US9198420B2, “Rodenticidal norbormide analogues” (priority 2012, dated 2015)
